Measured values taken from patent US11370798B2 (Vertex Pharmaceuticals Incorporated, priority 2012, dated 2022).

Test system: HCT116 colorectal cancer cells
Assay: Cisplatin sensitization assay (96 h cell viability MTS);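 note: Test-compound concentration that lowers the Cisplatin IC50 by a set fold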
Assay type: cell-based
Settings: compound and Cisplatin added simultaneously, Cisplatin sensitization value
In short: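 Compound and cisplatin added together as a full matrix of 2-fold serial dilutions from a top final concentration of 10 μM; cells incubated 96 h at 37° C, 5% CO2. Viability then read by MTS after 1 h further incubation; sensitization value reported in μM bins.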

| Structure (SMILES) | Cisplatin Sensitization Assay |
| --- | --- |
| Cc1nnccc1-c1ccncc1NC(=O)c1c(N)nn2cc(F)cnc12 [I-C-31, 2-amino-6-fluoro-N-(4-(3-methylpyridazin-4-yl)pyridin-3-yl)pyrazolo[1,5-a]pyrimidine-3-carboxamide] | +++ (Cisplatin sensitization value of <0.02 μM) |
| CN(C)CCOc1ccncc1NC(=O)c1c(N)nn2cc(Cl)cnc12 [I-O-48, 2-amino-6-chloro-N-(4-(2-(dimethylamino)ethoxy)pyridin-3-yl)pyrazolo[1,5-a]pyrimidine-3-carboxamide] | ++ (Cisplatin sensitization value>0.02 μM but <0.2 μM) |
| N#CCc1cnc2c(C(=O)Nc3cnccc3N3CCC(N)CC3)c(N)nn2c1 [I-N-2, 2-amino-N-(4-(4-aminopiperidin-1-yl)pyridin-3-yl)-6-(cyanomethyl)pyrazolo[1,5-a]pyrimidine-3-carboxamide] | +++ (Cisplatin sensitization value of <0.02 μM) |
| Nc1nn2cc(F)cnc2c1C(=O)Nc1cnccc1N1CCC(S(=O)(=O)N2CCOCC2)CC1 [I-N-170, 2-amino-6-fluoro-N-(4-(4-(morpholinosulfonyl)piperidin-1-yl)pyridin-3-yl)pyrazolo[1,5-a]pyrimidine-3-carboxamide] | +++ (Cisplatin sensitization value of <0.02 μM) |
| Nc1nn2cc(F)cnc2c1C(=O)Nc1cnccc1N1CCCCC1 [I-N-152, 2-amino-6-fluoro-N-(4-(piperidin-1-yl)pyridin-3-yl)pyrazolo[1,5-a]pyrimidine-3-carboxamide] | +++ (Cisplatin sensitization value of <0.02 μM) |
| Cn1ccc(-c2ccncc2NC(=O)c2c(N)nn3cc(F)cnc23)n1 [I-C-68, 2-amino-6-fluoro-N-(4-(1-methyl-1H-pyrazol-3-yl)pyridin-3-yl)pyrazolo[1,5-a]pyrimidine-3-carboxamide] | + (Cisplatin sensitization value>0.2 μM but <5 μM) |
| CN1C2CCC1CN(C(=O)C1CCN(c3c(F)cncc3NC(=O)c3c(N)nn4cc(F)cnc34)CC1)C2 [I-G-52, 2-amino-6-fluoro-N-(5-fluoro-4-(4-(8-methyl-3,8-diazabicyclo[3.2.1]octane-3-carbonyl)piperidin-1-yl)pyridin-3-yl)pyrazolo[1,5-a]pyrimidine-3-carboxamide] | +++ (Cisplatin sensitization value of <0.02 μM) |
| CC(C)N1CCN(c2ccncc2NC(=O)c2c(N)nn3cc(F)cnc23)CC1 [I-N-4, 2-amino-6-fluoro-N-(4-(4-isopropylpiperazin-1-yl)pyridin-3-yl)pyrazolo[1,5-a]pyrimidine-3-carboxamide] | +++ (Cisplatin sensitization value of <0.02 μM) |
| Cc1nc(F)ccc1-c1ccncc1NC(=O)c1c(N)nn2cc(F)cnc12 [I-C-34, 2-amino-6-fluoro-N-(6-fluoro-2-methyl-[3,4′-bipyridin]-3′-yl)pyrazolo[1,5-a]pyrimidine-3-carboxamide] | +++ (Cisplatin sensitization value of <0.02 μM) |
| Nc1nn2cc(Cl)cnc2c1C(=O)Nc1cnccc1N1CCC(N2CCCC2)CC1 [I-N-105, 2-amino-6-chloro-N-(4-(4-(pyrrolidin-1-yl)piperidin-1-yl)pyridin-3-yl)pyrazolo[1,5-a]pyrimidine-3-carboxamide] | +++ (Cisplatin sensitization value of <0.02 μM) |
| COC1(C)CN(C(=O)C2CCN(c3ccncc3NC(=O)c3c(N)nn4cc(F)cnc34)CC2)C1 [I-G-79, 2-amino-6-fluoro-N-(4-(4-(3-methoxy-3-methylazetidine-1-carbonyl)piperidin-1-yl)pyridin-3-yl)pyrazolo[1,5-a]pyrimidine-3-carboxamide] | +++ (Cisplatin sensitization value of <0.02 μM) |
| Nc1nn2cc(Cl)cnc2c1C(=O)Nc1cnccc1N1CCC(N2CCC23COC3)CC1 [I-N-109, N-(4-(4-(6-oxa-1-azaspiro[3.3]heptan-1-yl)piperidin-1-yl)pyridin-3-yl)-2-amino-6-chloropyrazolo[1,5-a]pyrimidine-3-carboxamide] | +++ (Cisplatin sensitization value of <0.02 μM) |
| Cc1ncnn1-c1ccncc1NC(=O)c1c(N)nn2cc(F)cnc12 [I-N-162, 2-amino-6-fluoro-N-(4-(5-methyl-1H-1,2,4-triazol-1-yl)pyridin-3-yl)pyrazolo[1,5-a]pyrimidine-3-carboxamide] | ++ (Cisplatin sensitization value>0.02 μM but <0.2 μM) |
| CC(=O)N1CCC(c2ccncc2NC(=O)c2c(N)nn3cc(F)cnc23)CC1 [I-C-69, N-(4-(1-acetylpiperidin-4-yl)pyridin-3-yl)-2-amino-6-fluoropyrazolo[1,5-a]pyrimidine-3-carboxamide] | +++ (Cisplatin sensitization value of <0.02 μM) |
| C[C@@H]1CN(C2COC2)CCN1c1ccncc1NC(=O)c1c(N)nn2cc(F)cnc12 [I-N-23, (R)-2-amino-6-fluoro-N-(4-(2-methyl-4-(oxetan-3-yl)piperazin-1-yl)pyridin-3-yl)pyrazolo[1,5-a]pyrimidine-3-carboxamide] | +++ (Cisplatin sensitization value of <0.02 μM) |
| Nc1nn2cc(F)cnc2c1C(=O)Nc1cncc(Cl)c1N1CCC(O)C1 (stereo not drawn) [I-N-284, 2-amino-N-(5-chloro-4-(3-hydroxypyrrolidin-1-yl)pyridin-3-yl)-6-fluoropyrazolo[1,5-a]pyrimidine-3-carboxamide] | +++ (Cisplatin sensitization value of <0.02 μM) |
| Nc1nn2cc(F)cnc2c1C(=O)Nc1cncc(F)c1N1CCCCC1 [I-N-270, 2-amino-6-fluoro-N-(5-fluoro-4-(piperidin-1-yl)pyridin-3-yl)pyrazolo[1,5-a]pyrimidine-3-carboxamide] | +++ (Cisplatin sensitization value of <0.02 μM) |
| Nc1nn2cc(F)cnc2c1C(=O)Nc1cnccc1N1CCN(S(=O)(=O)C2CCOC2)CC1 (stereo not drawn) [I-N-179, 2-amino-6-fluoro-N-(4-(4-((tetrahydrofuran-3-yl)sulfonyl)piperazin-1-yl)pyridin-3-yl)pyrazolo[1,5-a]pyrimidine-3-carboxamide] | +++ (Cisplatin sensitization value of <0.02 μM) |
| CN1CCN(C2CCN(c3c(F)cncc3NC(=O)c3c(N)nn4cc(F)cnc34)CC2)C(=O)C1 [I-N-151, 2-amino-6-fluoro-N-(5-fluoro-4-(4-(4-methyl-2-oxopiperazin-1-yl)piperidin-1-yl)pyridin-3-yl)pyrazolo[1,5-a]pyrimidine-3-carboxamide] | + (Cisplatin sensitization value>0.2 μM but <5 μM) |
| Nc1nn2cc(Cl)cnc2c1C(=O)Nc1cncc(F)c1N1CCC(C(=O)N2CCN3CCC2CC3)CC1 [I-G-87, N-(4-(4-(1,4-diazabicyclo[3.2.2]nonane-4-carbonyl)piperidin-1-yl)-5-fluoropyridin-3-yl)-2-amino-6-chloropyrazolo[1,5-a]pyrimidine-3-carboxamide] | +++ (Cisplatin sensitization value of <0.02 μM) |
| Nc1nn2cc(F)cnc2c1C(=O)Nc1cnccc1-n1cnc(C(F)(F)F)c1 [I-N-27, 2-amino-6-fluoro-N-(4-(4-(trifluoromethyl)-1H-imidazol-1-yl)pyridin-3-yl)pyrazolo[1,5-a]pyrimidine-3-carboxamide] | ++ (Cisplatin sensitization value>0.02 μM but <0.2 μM) |
| CN(C)CCN1CCN(c2ccncc2NC(=O)c2c(N)nn3cc(Cl)cnc23)CC1 [I-N-49, 2-amino-6-chloro-N-(4-(4-(2-(dimethylamino)ethyl)piperazin-1-yl)pyridin-3-yl)pyrazolo[1,5-a]pyrimidine-3-carboxamide] | +++ (Cisplatin sensitization value of <0.02 μM) |
| CN1CCN(C(=O)c2cnc(-c3ccncc3NC(=O)c3c(N)nn4cc(F)cnc34)c(Cl)c2)CC1 [I-C-46, 2-amino-N-(3-chloro-5-(4-methylpiperazine-1-carbonyl)-[2,4′-bipyridin]-3′-yl)-6-fluoropyrazolo[1,5-a]pyrimidine-3-carboxamide] | + (Cisplatin sensitization value>0.2 μM but <5 μM) |
| Nc1nn2cc(F)cnc2c1C(=O)Nc1cnccc1N1CCN2CCC1CC2 [I-N-18, N-(4-(1,4-diazabicyclo[3.2.2]nonan-4-yl)pyridin-3-yl)-2-amino-6-fluoropyrazolo[1,5-a]pyrimidine-3-carboxamide] | ++ (Cisplatin sensitization value>0.02 μM but <0.2 μM) |
| Nc1nn2cc(Cl)cnc2c1C(=O)Nc1cnccc1-n1ccnc1 [I-N-29, N-(4-(1H-imidazol-1-yl)pyridin-3-yl)-2-amino-6-chloropyrazolo[1,5-a]pyrimidine-3-carboxamide] | ++ (Cisplatin sensitization value>0.02 μM but <0.2 μM) |
| CN(C)CC1CCN(c2ccncc2NC(=O)c2c(N)nn3cc(F)cnc23)CC1 [I-N-267, 2-amino-N-(4-(4-((dimethylamino)methyl)piperidin-1-yl)pyridin-3-yl)-6-fluoropyrazolo[1,5-a]pyrimidine-3-carboxamide] | +++ (Cisplatin sensitization value of <0.02 μM) |
| Nc1nn2cc(F)cnc2c1C(=O)Nc1cncc(F)c1N1CCN([C@H]2CCOC2)CC1 [I-N-125, (S)-2-amino-6-fluoro-N-(5-fluoro-4-(4-(tetrahydrofuran-3-yl)piperazin-1-yl)pyridin-3-yl)pyrazolo[1,5-a]pyrimidine-3-carboxamide] | +++ (Cisplatin sensitization value of <0.02 μM) |
| Nc1nn2cc(F)cnc2c1C(=O)Nc1cnccc1C1CCN(S(=O)(=O)C2CC2)CC1 [I-C-47, 2-amino-N-(4-(1-(cyclopropylsulfonyl)piperidin-4-yl)pyridin-3-yl)-6-fluoropyrazolo[1,5-a]pyrimidine-3-carboxamide] | +++ (Cisplatin sensitization value of <0.02 μM) |
| CC(=O)N1CC2(CCN(c3ccncc3NC(=O)c3c(N)nn4cc(F)cnc34)CC2)C1 [I-N-251, N-(4-(2-acetyl-2,7-diazaspiro[3.5]nonan-7-yl)pyridin-3-yl)-2-amino-6-fluoropyrazolo[1,5-a]pyrimidine-3-carboxamide] | +++ (Cisplatin sensitization value of <0.02 μM) |
| Nc1nn2cc(F)cnc2c1C(=O)Nc1cnccc1-n1ccnc1C1CC1 [I-N-202, 2-amino-N-(4-(2-cyclopropyl-1H-imidazol-1-yl)pyridin-3-yl)-6-fluoropyrazolo[1,5-a]pyrimidine-3-carboxamide] | +++ (Cisplatin sensitization value of <0.02 μM) |
